Where two headings read alike, the source gives them in different places.
Columns and labels:
[1] = tested on: chronic B hepatitis; type: in vivo, human patients
Method: Search on effectiveness of the organogermanium compound to chronic B and non A non B hepatitises and preferable amount of dose thereof.
Therefore, 30 mg, 60 mg and 90 mg/day/body were set. Experimental period of time was set for 12 weeks.
(a) Examination of liver functions (GOT, GPT, A 1-P, and γ-GTP), and
(b) Examination with use of HBV markers (HBe-Ag, HBe-Ab and DNA-P).

[2] = tested on: chronic B hepatitis; experiment: Long term dosing in chronic B hepatitis (In Vivo Utilization Example 4); set-up: species or system human patients; conditions: for Liver tissue improvement: Ballooning of cell: 4 patients; for Liver tissue improvement: Bridging necrosis: 9 patients; for Liver tissue improvement: Fatty degeneration: 11 patients; for Liver tissue improvement: Moderation of lobule: 15 patients; for Glisson's capsule improvement: Piecemeal necrosis: 17 patients; for Glisson's capsule improvement: Fibrosis: 23 patients; for Glisson's capsule improvement: Round cell infiltration / Liver tissue improvement: Cobwebby necrosis / Liver tissue improvement: Degenerative necrosis in cell / Liver tissue improvement: Mobilization image of Kupfer cell: 24 patients
Method: A capsule containing the organogermanium compound was dosed to patients infected with chronic B hepatitis over a long period of time at a rate of 30 mg/day/body as the effective compound to check safety and effectiveness.
(a) Number of patients for analysis: 34 persons.
(b) Mean dosing period of time: 55 weeks.
(c) Number of patients who continuously dose over 48 weeks: 26 persons.

3-oxygermylpropionic acid [Compound No. 1]
Effectiveness (slight or more) ([1]; 30 mg/day): 55%
General judgement: Improvement (slight or more) ([1]; 30 mg/day): 52%
HBV markers: Improvement (slight or more) ([1]; 30 mg/day): 36%
A 1-P change ([1]; 30 mg/day, 12 weeks): .dwnarw. *
DNA-P change ([1]; 30 mg/day, 12 weeks): .dwnarw. +
GOT change ([1]; 30 mg/day, 12 weeks): .dwnarw. *
GPT change ([1]; 30 mg/day, 12 weeks): .dwnarw. +
HBe-Ab change ([1]; 30 mg/day, 12 weeks): .uparw. *
HBe-Ag (log conversion) change ([1]; 30 mg/day, 12 weeks): .dwnarw. **
γ-GTP change ([1]; 30 mg/day, 12 weeks): .dwnarw. *
Effectiveness (slight or more) ([1]; 60 mg/day): 47%
General judgement: Improvement (slight or more) ([1]; 60 mg/day): 37%
HBV markers: Improvement (slight or more) ([1]; 60 mg/day): 27%
HBe-Ab change ([1]; 60 mg/day, 12 weeks): .uparw. +
Effectiveness (slight or more) ([1]; 90 mg/day): 47%
General judgement: Improvement (slight or more) ([1]; 90 mg/day): 43%
HBV markers: Improvement (slight or more) ([1]; 90 mg/day): 15%
HBe-Ab change ([1]; 90 mg/day, 12 weeks): .uparw. **
ratio of improvement in functions of liver (at least slight), judgement of doctor in charge ([2]; 30 mg/day/body, mean 55 weeks): 63%
ratio of improvement in functions of liver (at least slight), secondary judgement of committee ([2]; 30 mg/day/body, mean 55 weeks): 59%
patients changed to SC (seroconversion) ([2]; among 23 HBe antigen positive): 3 patients
patients changed to SN (seronegative) ([2]; among 23 HBe antigen positive): 3 patients
ratio of disappearance of HBe antigen ([2]; among 23 HBe antigen positive): 26%
Liver tissue improvement: Evaluation ([2]; ≥middle, 3/24): 12.5%
Liver tissue improvement: Ballooning of cell ([2]; ≥middle): 0%
Liver tissue improvement: Bridging necrosis ([2]; ≥middle): 22.2%
Liver tissue improvement: Fatty degeneration ([2]; ≥middle): 0%
Liver tissue improvement: Moderation of lobule ([2]; ≥middle): 0%
Glisson's capsule improvement: Piecemeal necrosis ([2]; ≥middle): 17.6%
Glisson's capsule improvement: Fibrosis ([2]; ≥middle): 8.7%
Glisson's capsule improvement: Round cell infiltration ([2]; ≥middle): 0%
Liver tissue improvement: Cobwebby necrosis ([2]; ≥middle): 16.7%
Liver tissue improvement: Degenerative necrosis in cell ([2]; ≥middle): 16.7%
Liver tissue improvement: Mobilization image of Kupfer cell ([2]; ≥middle): 16.7%
Liver tissue improvement: Ballooning of cell ([2]; ≥slight): 50.0%
Liver tissue improvement: Bridging necrosis ([2]; ≥slight): 33.3%
Liver tissue improvement: Evaluation ([2]; ≥slight, 10/24): 41.7%
Liver tissue improvement: Fatty degeneration ([2]; ≥slight): 9.1%
Liver tissue improvement: Moderation of lobule ([2]; ≥slight): 6.7%
Glisson's capsule improvement: Piecemeal necrosis ([2]; ≥slight): 29.4%
Glisson's capsule improvement: Fibrosis ([2]; ≥slight): 17.4%
Glisson's capsule improvement: Round cell infiltration ([2]; ≥slight): 12.5%
Liver tissue improvement: Cobwebby necrosis ([2]; ≥slight): 37.5%
Liver tissue improvement: Degenerative necrosis in cell ([2]; ≥slight): 37.5%
Liver tissue improvement: Mobilization image of Kupfer cell ([2]; ≥slight): 41.7%

Source: patent US5340806A, “Composition containing organogermanium compound and immunity adjusting agent comprising the composition” (Sanwa Kagaku Kenkyusho Co., Ltd., priority 1984, dated 1994)
